Test results published in patent publication US9963445B2, “Chemical compounds” (SYNGENTA PARTICIPATIONS AG, priority 2013, dated 2018).

Experiments:
Type in all cases: in vivo
[1] = test system: Setaria faberi; assay: Pre-emergence herbicidal activity, glasshouse pot test; conditions: pre-emergence spray, rate 1000 g/ha, evaluated after 13 days, scale 0-5
Experimental: (§1) Seeds of a variety of test species were sown in standard soil in pots. After cultivation for one day (pre-emergence) under controlled conditions in a glasshouse (at 24/16° C., day/night; 14 hours light; 65% humidity), the plants were sprayed with an aqueous spray solution derived from the formulation of the technical active ingredient in acetone/water (50:50) solution containing 0.5% Tween 20 (polyoxyethelyene sorbitan monolaurate, CAS RN 9005-64-5). The test plants were then grown in a glasshouse under controlled conditions (at 24/16° C., day/night; 14 hours light; 65% humidity) and watered twice daily. After 13 days, the test was evaluated (5=total damage to plant; 0=no damage to plant).
(§2) ABUTH=Abutilon theophrasti; SOLNI=Solanum nigrum; AMARE=Amaranthus retroflexus; SETFA=Setaria faberi; ALOMY=Alopecurus myosuroides; ECHCG=Echinochloa crus-galli, ZEAMX=zea mays.

[2] = test system: Amaranthus retroflexus; assay: as above; conditions: pre-emergence spray, rate 1000 g/ha, evaluated after 13 days, scale 0-5
Experimental: as §1, §2

[3] = test system: zea mays; assay: as above; conditions: pre-emergence spray, rate 1000 g/ha, evaluated after 13 days, scale 0-5
Experimental: as §1, §2

[4] = test system: Abutilon theophrasti; assay: as above; conditions: pre-emergence spray, rate 1000 g/ha, evaluated after 13 days, scale 0-5
Experimental: as §1, §2

[5] = test system: Echinochloa crus-galli; assay: as above; conditions: pre-emergence spray, rate 1000 g/ha, evaluated after 13 days, scale 0-5
Experimental: as §1, §2

[6] = test system: Alopecurus myosuroides; assay: as above; conditions: pre-emergence spray, rate 1000 g/ha, evaluated after 13 days, scale 0-5
Experimental: as §1, §2

[7] = test system: Setaria faberi; assay: Post-emergence herbicidal activity, glasshouse pot test; set-up: key: 0 = no damage to plant, 5 = total damage to plant; conditions: Application post-emergence, rate 1000 g/ha, evaluated after 13 days
Experimental: (§3) Seeds of a variety of test species were sown in standard soil in pots. After 8 days cultivation (post-emergence) under controlled conditions in a glasshouse (at 24/16° C., day/night; 14 hours light; 65% humidity), the plants were sprayed with an aqueous spray solution derived from the formulation of the technical active ingredient in acetone/water (50:50) solution containing 0.5% Tween 20 (polyoxyethelyene sorbitan monolaurate, CAS RN 9005-64-5). The test plants were then grown in a glasshouse under controlled conditions (at 24/16° C., day/night; 14 hours light; 65% humidity) and watered twice daily. After 13 days, the test was evaluated (5=total damage to plant; 0=no damage to plant).
as §2

[8] = test system: Amaranthus retroflexus; assay: as above; set-up: key: 0 = no damage to plant, 5 = total damage to plant; conditions: Application post-emergence, rate 1000 g/ha, evaluated after 13 days
Experimental: as §3, §2

[9] = test system: zea mays; assay: as above; set-up: key: 0 = no damage to plant, 5 = total damage to plant; conditions: Application post-emergence, rate 1000 g/ha, evaluated after 13 days
Experimental: as §3, §2

[10] = test system: Abutilon theophrasti; assay: as above; set-up: key: 0 = no damage to plant, 5 = total damage to plant; conditions: Application post-emergence, rate 1000 g/ha, evaluated after 13 days
Experimental: as §3, §2

[11] = test system: Echinochloa crus-galli; assay: as above; set-up: key: 0 = no damage to plant, 5 = total damage to plant; conditions: Application post-emergence, rate 1000 g/ha, evaluated after 13 days
Experimental: as §3, §2

[12] = test system: Alopecurus myosuroides; assay: as above; set-up: key: 0 = no damage to plant, 5 = total damage to plant; conditions: Application post-emergence, rate 1000 g/ha, evaluated after 13 days
Experimental: as §3, §2

6-(4-chloro-2-hydroxy-3-methyl-5-oxo-2H-pyrrol-1-yl)-4-(trifluoromethyl)pyridine-3-carbonitrile [AF3]
5: SETFA herbicidal damage score [7] | AMARE herbicidal damage score [8] | ABUTH herbicidal damage score [10] | ECHCG herbicidal damage score [11] | ALOMY herbicidal damage score [12]
3: ALOMY damage score, application pre-emergence [6]
2: AMARE damage score, application pre-emergence [2] | ZEAMX damage score, application pre-emergence [3]
0: ABUTH damage score, application pre-emergence [4]
4: SETFA damage score, application pre-emergence [1] | ECHCG damage score, application pre-emergence [5] | ZEAMX herbicidal damage score [9]

CCO/C=C\c1cnc(N2C(=O)C(Cl)=C(C)C2O)cc1C(F)(F)F (stereo not drawn) [AF1]
2: SETFA damage score, application pre-emergence [1] | ECHCG damage score, application pre-emergence [5] | ZEAMX herbicidal damage score [9]
5: SETFA herbicidal damage score [7] | AMARE herbicidal damage score [8] | ABUTH herbicidal damage score [10] | ECHCG herbicidal damage score [11] | ALOMY herbicidal damage score [12]
1: ZEAMX damage score, application pre-emergence [3] | ABUTH damage score, application pre-emergence [4] | ALOMY damage score, application pre-emergence [6]
4: AMARE damage score, application pre-emergence [2]

CC(C)=C(C)c1cnc(N2C(=O)C(Cl)=C(C)C2O)cc1C(F)(F)F (stereo not drawn) [AF2]
1: ABUTH damage score, application pre-emergence [4] | ZEAMX herbicidal damage score [9]
5: SETFA herbicidal damage score [7] | AMARE herbicidal damage score [8] | ABUTH herbicidal damage score [10] | ECHCG herbicidal damage score [11]
3: AMARE damage score, application pre-emergence [2] | ECHCG damage score, application pre-emergence [5]
0: ZEAMX damage score, application pre-emergence [3] | ALOMY damage score, application pre-emergence [6]
4: SETFA damage score, application pre-emergence [1] | ALOMY herbicidal damage score [12]

CC1=C(Cl)C(=O)N(c2nccc(C(F)(F)F)c2F)C1O (stereo not drawn) [AF5]
4: SETFA damage score, application pre-emergence [1] | ZEAMX damage score, application pre-emergence [3] | ABUTH damage score, application pre-emergence [4] | ECHCG damage score, application pre-emergence [5] | ALOMY damage score, application pre-emergence [6] | ZEAMX herbicidal damage score [9]
5: AMARE damage score, application pre-emergence [2] | SETFA herbicidal damage score [7] | AMARE herbicidal damage score [8] | ABUTH herbicidal damage score [10] | ECHCG herbicidal damage score [11] | ALOMY herbicidal damage score [12]

CC(=O)OC1C(C)=C(Cl)C(=O)N1c1cc(C(F)(F)F)ccn1 (stereo not drawn) [AF10]
0: ZEAMX damage score, application pre-emergence [3]
5: AMARE damage score, application pre-emergence [2] | ABUTH damage score, application pre-emergence [4] | ECHCG damage score, application pre-emergence [5] | SETFA herbicidal damage score [7] | AMARE herbicidal damage score [8] | ABUTH herbicidal damage score [10] | ECHCG herbicidal damage score [11] | ALOMY herbicidal damage score [12]
4: SETFA damage score, application pre-emergence [1] | ZEAMX herbicidal damage score [9]
3: ALOMY damage score, application pre-emergence [6]

CSc1ccc(N2C(=O)C(Cl)=C(C)C2OC(C)=O)nc1 (stereo not drawn) [AF19]
5: AMARE herbicidal damage score [8]
4: ALOMY herbicidal damage score [12]
1: ZEAMX herbicidal damage score [9]
3: SETFA herbicidal damage score [7] | ABUTH herbicidal damage score [10] | ECHCG herbicidal damage score [11]
0: SETFA damage score, application pre-emergence [1] | AMARE damage score, application pre-emergence [2] | ZEAMX damage score, application pre-emergence [3] | ABUTH damage score, application pre-emergence [4] | ECHCG damage score, application pre-emergence [5] | ALOMY damage score, application pre-emergence [6]

CC1=C(Cl)C(=O)N(c2cc(C(C)C)c(C(=O)OC(C)C)cn2)C1O (stereo not drawn) [AF23]
2: SETFA damage score, application pre-emergence [1]
3: ZEAMX herbicidal damage score [9]
4: ALOMY damage score, application pre-emergence [6] | SETFA herbicidal damage score [7] | ABUTH herbicidal damage score [10] | ALOMY herbicidal damage score [12]
1: ZEAMX damage score, application pre-emergence [3] | ABUTH damage score, application pre-emergence [4]
5: AMARE damage score, application pre-emergence [2] | ECHCG damage score, application pre-emergence [5] | AMARE herbicidal damage score [8] | ECHCG herbicidal damage score [11]

CC1=C(Cl)C(=O)N(c2cc(/C=C/C(C)(C)C)ccn2)C1O (stereo not drawn) [AF26]
1: AMARE herbicidal damage score [8] | ABUTH herbicidal damage score [10]
0: SETFA damage score, application pre-emergence [1] | AMARE damage score, application pre-emergence [2] | ZEAMX damage score, application pre-emergence [3] | ABUTH damage score, application pre-emergence [4] | ECHCG damage score, application pre-emergence [5] | ALOMY damage score, application pre-emergence [6] | SETFA herbicidal damage score [7] | ALOMY herbicidal damage score [12]
2: ZEAMX herbicidal damage score [9] | ECHCG herbicidal damage score [11]

CC1=C(Cl)C(=O)N(c2cc(C(F)(F)F)cc[n+]2[O-])C1O (stereo not drawn) [AF28]
1: ZEAMX herbicidal damage score [9] | ECHCG herbicidal damage score [11] | ALOMY herbicidal damage score [12]
3: SETFA herbicidal damage score [7] | ABUTH herbicidal damage score [10]
0: SETFA damage score, application pre-emergence [1] | AMARE damage score, application pre-emergence [2] | ZEAMX damage score, application pre-emergence [3] | ABUTH damage score, application pre-emergence [4] | ECHCG damage score, application pre-emergence [5] | ALOMY damage score, application pre-emergence [6] | AMARE herbicidal damage score [8]

CC(=O)c1ccnc(N2C(=O)C(Cl)=C(C)C2O)c1 (stereo not drawn) [AF30]
2: ECHCG damage score, application pre-emergence [5] | ECHCG herbicidal damage score [11] | ALOMY herbicidal damage score [12]
3: AMARE damage score, application pre-emergence [2] | ABUTH damage score, application pre-emergence [4] | SETFA herbicidal damage score [7]
1: SETFA damage score, application pre-emergence [1] | ZEAMX damage score, application pre-emergence [3] | ALOMY damage score, application pre-emergence [6] | AMARE herbicidal damage score [8] | ZEAMX herbicidal damage score [9] | ABUTH herbicidal damage score [10]

CC1=C(Cl)C(=O)N(c2cc(C(C)(C)F)ccn2)C1O (stereo not drawn) [AF31]
5: SETFA damage score, application pre-emergence [1] | AMARE damage score, application pre-emergence [2] | ABUTH damage score, application pre-emergence [4] | SETFA herbicidal damage score [7] | AMARE herbicidal damage score [8] | ZEAMX herbicidal damage score [9] | ABUTH herbicidal damage score [10] | ECHCG herbicidal damage score [11] | ALOMY herbicidal damage score [12]
2: ZEAMX damage score, application pre-emergence [3]
4: ECHCG damage score, application pre-emergence [5]
3: ALOMY damage score, application pre-emergence [6]

CC1=C(Cl)C(=O)N(c2cc(C(C)(F)F)ccn2)C1O (stereo not drawn) [AF32]
2: ZEAMX damage score, application pre-emergence [3]
3: ALOMY damage score, application pre-emergence [6]
5: SETFA damage score, application pre-emergence [1] | AMARE damage score, application pre-emergence [2] | ABUTH damage score, application pre-emergence [4] | SETFA herbicidal damage score [7] | AMARE herbicidal damage score [8] | ABUTH herbicidal damage score [10] | ECHCG herbicidal damage score [11]
4: ECHCG damage score, application pre-emergence [5] | ZEAMX herbicidal damage score [9] | ALOMY herbicidal damage score [12]

CC1=C(Cl)C(=O)N(c2cc(C(F)F)ccn2)C1O (stereo not drawn) [AF34]
4: AMARE herbicidal damage score [8]
2: ZEAMX damage score, application pre-emergence [3]
5: SETFA damage score, application pre-emergence [1] | ABUTH damage score, application pre-emergence [4] | ECHCG damage score, application pre-emergence [5] | SETFA herbicidal damage score [7] | ABUTH herbicidal damage score [10] | ECHCG herbicidal damage score [11] | ALOMY herbicidal damage score [12]
3: AMARE damage score, application pre-emergence [2] | ALOMY damage score, application pre-emergence [6] | ZEAMX herbicidal damage score [9]

CC1=C(Cl)C(=O)N(c2cc(C(C)(C)C)ccn2)C1O (stereo not drawn) [AF36]
4: ALOMY damage score, application pre-emergence [6] | ZEAMX herbicidal damage score [9] | ALOMY herbicidal damage score [12]
5: SETFA damage score, application pre-emergence [1] | AMARE damage score, application pre-emergence [2] | ABUTH damage score, application pre-emergence [4] | ECHCG damage score, application pre-emergence [5] | SETFA herbicidal damage score [7] | ABUTH herbicidal damage score [10] | ECHCG herbicidal damage score [11]
3: AMARE herbicidal damage score [8]
2: ZEAMX damage score, application pre-emergence [3]

CC1=C(Cl)C(=O)N(c2cc(C(F)(F)F)cc(Cl)n2)C1O (stereo not drawn) [AF37]
0: AMARE damage score, application pre-emergence [2] | ZEAMX damage score, application pre-emergence [3] | ABUTH damage score, application pre-emergence [4] | ECHCG damage score, application pre-emergence [5] | AMARE herbicidal damage score [8]
1: SETFA damage score, application pre-emergence [1] | ZEAMX herbicidal damage score [9]
4: SETFA herbicidal damage score [7] | ECHCG herbicidal damage score [11] | ALOMY herbicidal damage score [12]
2: ABUTH herbicidal damage score [10]
3: ALOMY damage score, application pre-emergence [6]
